Laboratory results: patent US20120152149A1, “USE OF 1,3-DIOLS AS BIOCIDES” (BASF SE, priority 2009, published 2012)
Where two headings read alike, the source gives them in different places.

Experiments:
Assay type in all cases: cell-based
[1] = tested on: P. aeruginosa NCIMB 10421; experiment: Microstatic activity, MIC in tryptone soy broth; settings: Pseudomonas aeruginosa, NCIMB10421, 30° C., 48 hours, lower limit of MIC range, read-out: MIC value (ppm of diol), from
In short: (§1)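 Diols dissolved at 40 wt% in propylene glycol at 60 °C, diluted in tryptone soy broth to 400 000–3125 ppm, then inoculated (0.1 ml organism per 5 ml). Bacteria incubated 48 h at 30 °C, fungi 5 days at 25 °C. MIC taken as a range between the last concentration showing visible growth/clouding and the first without.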

S. aureus NCIMB 9578 = experiment: Microstatic activity, MIC in tryptone soy broth; settings: Staphylococcus aureus, NCIMB9578, 30° C., 48 hours
In short: as §1

E. coli NCIMB 8545 = experiment: Microstatic activity, MIC in tryptone soy broth; settings: Escherichia coli, NCIMB8545, 30° C., 48 hours
In short: as §1

P. vulgaris NCIMB 4175 = experiment: Microstatic activity, MIC in tryptone soy broth; settings: Proteus vulgaris, NCIMB4175, 30° C., 48 hours
In short: as §1

C. albicans ATCC 10231 [2] = experiment: Preservation stress test, example formulation 1 (standard emulsion O/W); settings: 1% active substance
In short: (§2)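 O/W emulsion containing 1% diol (water as placebo), inoculated individually or as mixed culture at 10^5-10^6 CFU/g and held 28 d at 20-25° C. Surviving counts at 0, 2, 7, 14 and 28 d after dilution in neutralising phosphate buffer pH 7.4 with Tween 80/lecithin; expressed as log reduction from initial count.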

A. niger ATCC 16404 [3] = experiment: as above; settings: 1% active substance
In short: as §2

[4] = tested on: series of tested microorganisms (bacteria and fungi); experiment: Microstatic activity, highest MIC from the series of tested microorganisms; settings: highest measured MIC from the series of tested microorganisms; lower limit; read-out: Maximum MIC value (ppm of diol), from
In short: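 Diol tested for biocidal effect against a panel of bacteria and fungi; MIC taken as lowest concentration visibly hindering growth versus diol-free sample. Each MIC is a range between the next higher positive-test concentration and the first negative-test concentration; the series value is the highest MIC across organisms.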

C. albicans ATCC 10231 [5] = experiment: Preservation stress test, example formulation 2 (roll-on deodorant formulation); settings: 1% active substance
Procedure: (§3) Preservation stress tests (PSTs) were carried out in order to determine the preserving activity of the diols. In the preservation stress test, this is simulated through artificial loadings with microorganisms. These can either be inoculated as mixed population or individually in mixtures independent of one another. The inoculated product samples are incubated under defined conditions and, after defined times, samples are taken in order to determine the germ loading. In the case of adequate preservation, the number of microorganisms should, depending on the type, either decrease or remain constant in order to satisfy the requirements specified, e.g. in Ph. Eur. 6.0. To investigate the preserving effect of the diols, application-typical amounts of the diols were incorporated into example formulations. […] [table] These example formulations were used to prepare various mixtures which each comprised 1% active substance or comprised water instead of the active substance as placebo mixtures. These mixtures were in each case inoculated with the test germs such that a germ loading of 10^5-10^6 CFU/g was present in the test mixture. The bacteria were either used individually for the inoculation or as a mixed culture. To determine the starting germ count, immediately after inoculation, an aliquot was taken, diluted in dilution medium (phosphate buffer, 0.07 molar pH 7.4 (+/−0.2), with 1% Tween 80+0.3% soya lecithin), and the surviving germ count was determined in the dilution stages 10^−1 to 10^−3. The inoculated product samples then incubated for a total of 28 d at 20-25° C. After 2 d, 7 d, 14 d and after 28 d, aliquots were taken and diluted in dilution medium (phosphate buffer, 0.07 molar pH 7.4 (+/−0.2), with 1% Tween 80+0.3% soya lecithin). The surviving germ counts were determined in the dilution stages 10^−1 to 10^−4. The reference point taken for determining the reduction in germ count was the respective initial value of the sample. The results were given as logarithmic reductions.

A. niger ATCC 16404 [6] = experiment: as above; settings: 1% active substance
Procedure: as §3

S. aureus ATCC 6538 = experiment: as above; settings: 1% active substance
Procedure: as §3

P. aeruginosa ATCC 15442 = experiment: as above; settings: 1% active substance
Procedure: as §3

E. coli ATCC 10536 = experiment: as above; settings: 1% active substance
Procedure: as §3

[7] = lower limit of MIC range, read-out: MIC value (ppm of diol), from
[8] = upper limit of MIC range, read-out: MIC value (ppm of diol), to

## CCCCCCCCC(C)(CO)CO [OMPD, 2-octyl-2-methylpropane-1,3-diol]
[1]
  MIC: > 100 mg/mL
S. aureus NCIMB 9578; [7]
  MIC: > 25 mg/mL
S. aureus NCIMB 9578; [8]
  MIC: ≤ 50 mg/mL
E. coli NCIMB 8545; [7]
  MIC: > 50 mg/mL
E. coli NCIMB 8545; [8]
  MIC: ≤ 100 mg/mL
P. vulgaris NCIMB 4175; [7]
  MIC: > 50 mg/mL
P. vulgaris NCIMB 4175; [8]
  MIC: ≤ 100 mg/mL
C. albicans ATCC 10231 [2]; 48 h
  Microbicidal activity given as logarithmic reduction in germ count: ≧3 log. Red.
C. albicans ATCC 10231 [2]; 7 d
  Microbicidal activity given as logarithmic reduction in germ count: 5 log. Red.
C. albicans ATCC 10231 [2]; 14 d
  Microbicidal activity given as logarithmic reduction in germ count: 5 log. Red.
C. albicans ATCC 10231 [2]; 28 d
  Microbicidal activity given as logarithmic reduction in germ count: 5 log. Red.
A. niger ATCC 16404 [3]; 48 h
  Microbicidal activity given as logarithmic reduction in germ count: 0 log. Red.
A. niger ATCC 16404 [3]; 7 d
  Microbicidal activity given as logarithmic reduction in germ count: 0 log. Red.
A. niger ATCC 16404 [3]; 14 d
  Microbicidal activity given as logarithmic reduction in germ count: 1 log. Red.
A. niger ATCC 16404 [3]; 28 d
  Microbicidal activity given as logarithmic reduction in germ count: 1 log. Red.
[4]
  MIC: > 100 mg/mL
C. albicans ATCC 10231 [5]; 48 h
  Microbicidal activity given as logarithmic reduction in germ count: 0 log. Red.
C. albicans ATCC 10231 [5]; 7 d
  Microbicidal activity given as logarithmic reduction in germ count: 0 log. Red.
C. albicans ATCC 10231 [5]; 14 d
  Microbicidal activity given as logarithmic reduction in germ count: 0 log. Red.
A. niger ATCC 16404 [6]; 48 h
  Microbicidal activity given as logarithmic reduction in germ count: 0 log. Red.
A. niger ATCC 16404 [6]; 7 d
  Microbicidal activity given as logarithmic reduction in germ count: 0 log. Red.
A. niger ATCC 16404 [6]; 14 d
  Microbicidal activity given as logarithmic reduction in germ count: 0 log. Red.
S. aureus ATCC 6538; 48 h
  Microbicidal activity given as logarithmic reduction in germ count: ≧3 log. Red.
S. aureus ATCC 6538; 7 d
  Microbicidal activity given as logarithmic reduction in germ count: 5 log. Red.
S. aureus ATCC 6538; 14 d
  Microbicidal activity given as logarithmic reduction in germ count: 5 log. Red.
S. aureus ATCC 6538; 28 d
  Microbicidal activity given as logarithmic reduction in germ count: 5 log. Red.
P. aeruginosa ATCC 15442; 48 h
  Microbicidal activity given as logarithmic reduction in germ count: ≧3 log. Red.
P. aeruginosa ATCC 15442; 7 d
  Microbicidal activity given as logarithmic reduction in germ count: 5 log. Red.
P. aeruginosa ATCC 15442; 14 d
  Microbicidal activity given as logarithmic reduction in germ count: 5 log. Red.
P. aeruginosa ATCC 15442; 28 d
  Microbicidal activity given as logarithmic reduction in germ count: 5 log. Red.
E. coli ATCC 10536; 48 h
  Microbicidal activity given as logarithmic reduction in germ count: 0 log. Red.
E. coli ATCC 10536; 7 d
  Microbicidal activity given as logarithmic reduction in germ count: ≧3 log. Red.
E. coli ATCC 10536; 14 d
  Microbicidal activity given as logarithmic reduction in germ count: 5 log. Red.
E. coli ATCC 10536; 28 d
  Microbicidal activity given as logarithmic reduction in germ count: 5 log. Red.
